Data: patent US11214594B2, “Antimicrobial peptide having synergistic antibacterial effect with antibiotics on multidrug resistant bacteria, and use thereof” (priority 2016, dated 2022)
Values after ≈ are worked out from the molar mass of the structure shown. Read-outs that look alike come from different tables or passages of the source. Where a SMILES comes first, the peptide text is derived from it.

Assays:
B. subtilis = experiment: microbe, parasite or virus in culture; format: cell-based, Bacillus subtilis
Summary of the method: (§1)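 MIC read-out = lowest peptide level with no bacterial proliferation. Strains diluted in MH medium to 2×10^6 CFU; peptide twofold serial dilutions in MH added 1:1 in microtiter wells.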

S. epidermidis = experiment: microbe, parasite or virus in culture; format: cell-based, Staphylococcus epidermidis
Summary of the method: as §1

A. baumannii [1] = experiment: MIC of antimicrobial peptide during combined treatment with antibiotic; format: cell-based, Acinetobacter baumannii
Summary of the method: (§2)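 Broth microdilution in MH medium; strains were diluted to 2×10^6 CFU per ml before plating. Peptide was serially diluted stepwise at 2:1 starting from its MIC, and MH-diluted antibiotic was then added to determine MIC. The reversed arrangement was also tested.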

MDRAB 12035 = experiment: as above; format: cell-based, Acinetobacter baumannii
Summary of the method: as §2

E. coli [2] = format: cell-based, Escherichia coli; conditions: E. coli
Summary of the method: as §2

MDREC 1229 [3] = format: cell-based, Escherichia coli
Summary of the method: as §2

P. aeruginosa = experiment: microbe, parasite or virus in culture; format: cell-based, Pseudomonas aeruginosa
Summary of the method: as §1

MDRST 8009 = format: cell-based, Salmonella typhimurium; conditions: agent alone
Summary of the method: as §1

E. coli [4] = experiment: MIC of antibiotic during combined treatment with antimicrobial peptide; format: cell-based, Escherichia coli; conditions: for Antibiotic MIC, Erythromycin / Antibiotic MIC, Linezolid / Antibiotic MIC, Vancomycin: E. coli
Summary of the method: (§3)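 Using MH broth, we determined combination MICs by titrating the antibiotic into wells and then repeating under the reverse dilution scheme.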

MDREC 1229 [5] = experiment: as above; format: cell-based, Escherichia coli
Summary of the method: as §2

A. baumannii [6] = experiment: as above; format: cell-based, Acinetobacter baumannii; conditions: for Antibiotic MIC, Erythromycin / Antibiotic MIC, Linezolid / Antibiotic MIC, Vancomycin: A. baumannii
Summary of the method: as §3

E. coli [7] = experiment: microbe, parasite or virus in culture; format: cell-based, Escherichia coli; conditions: 16 h
Summary of the method: as §1

MDREC 1229 [8] = experiment: microbe, parasite or virus in culture; format: cell-based, Escherichia coli
Summary of the method: as §1

[9] = erythromycin 4 μg/ml (Conc./MIC 1/8)
[10] = erythromycin 8 μg/ml (Conc./MIC 1/4)
[11] = erythromycin 16 μg/ml (Conc./MIC 1/2)
[12] = erythromycin 32 μg/ml (Conc./MIC 1)
[13] = vancomycin 512 μg/ml (Conc./MIC 1/2)
[14] = vancomycin 1024 μg/ml (Conc./MIC 1)
[15] = with Erythromycin […] (Conc./MIC 1)
[16] = peptide treatment concentration 1 μg/ml
[17] = peptide treatment concentration 2 μg/ml
[18] = peptide treatment concentration 4 μg/ml
[19] = peptide treatment concentration 6 μg/ml
[20] = peptide treatment concentration 8 μg/ml
[21] = peptide treatment concentration 16 μg/ml
[22] = peptide treatment concentration 32 μg/ml
[23] = peptide treatment concentration 64 μg/ml
[24] = combined with peptide at 1 μg/ml
[25] = combined with peptide at 2 μg/ml
[26] = combined with peptide at 4 μg/ml
[27] = combined with peptide at 6 μg/ml
[28] = combined with peptide at 8 μg/ml
[29] = combined with peptide at 16 μg/ml
[30] = combined with peptide at 32 μg/ml
[31] = combined with peptide at 64 μg/ml

## CC[C@H](C)[C@H](NC(=O)[C@H](CCCCN)NC(=O)[C@H](Cc1c[nH]c2ccccc12)NC(=O)[C@@H](N)CCCNC(=N)N)C(=O)N[C@@H](Cc1ccccc1)C(=O)N[C@@H](CCCCN)C(=O)N[C@@H](CCCCN)C(=O)N[C@H](C(=O)N1CCC[C@H]1C(=O)N[C@@H](CCCCN)C(=O)N[C@@H](Cc1ccccc1)C(=O)N[C@@H](CC(C)C)C(=O)N[C@@H](Cc1c[nH]cn1)C(=O)N[C@@H](CO)C(=O)N[C@@H](Cc1c[nH]c2ccccc12)C(=O)N[C@@H](CCCCN)C(=O)N[C@@H](CCCCN)C(=O)N[C@@H](Cc1ccccc1)C(N)=O)[C@@H](C)CC [PapMA-3, RWK IFK KIP KFL HSW KKF-NH2] (H-RWKIFKKIPKFLHSWKKF-NH2; N-terminus assumed)
B. subtilis
  Minimal inhibitory concentration MIC: >128 mg/L
S. epidermidis
  Minimal inhibitory concentration MIC: >128 mg/L
A. baumannii [1]; [9]
  Peptide MIC during treatment with antibiotic: 4 mg/L
A. baumannii [1]; [10]
  Peptide MIC during treatment with antibiotic: 4 mg/L
A. baumannii [1]; [11]
  Peptide MIC during treatment with antibiotic: 2 mg/L
A. baumannii [1]; [12]
  Peptide MIC during treatment with antibiotic: 0 mg/L
A. baumannii [1]; linezolid 32 μg/ml (Conc./MIC 1/8)
  Peptide MIC during treatment with antibiotic: 4 mg/L
A. baumannii [1]; linezolid 64 μg/ml (Conc./MIC 1/4)
  Peptide MIC during treatment with antibiotic: 2 mg/L
A. baumannii [1]; linezolid […] (Conc./MIC 1)
  Peptide MIC during treatment with antibiotic: 0 mg/L
A. baumannii [1]; linezolid […] (Conc./MIC 1/2)
  Peptide MIC during treatment with antibiotic: 1 mg/L
A. baumannii [1]; [13]
  Peptide MIC during treatment with antibiotic: 0.25 mg/L
A. baumannii [1]; [14]
  Peptide MIC during treatment with antibiotic: 0 mg/L
A. baumannii [1]; vancomycin […] (Conc./MIC 1/4)
  Peptide MIC during treatment with antibiotic: 0.25 mg/L
A. baumannii [1]; vancomycin […] (Conc./MIC 1/8)
  Peptide MIC during treatment with antibiotic: 2 mg/L
MDRAB 12035; [9]
  Peptide MIC during treatment with erythromycin: 4 mg/L
MDRAB 12035; [10]
  Peptide MIC during treatment with erythromycin: 4 mg/L
MDRAB 12035; [11]
  Peptide MIC during treatment with erythromycin: 2 mg/L
MDRAB 12035; [12]
  Peptide MIC during treatment with erythromycin: 0 mg/L
MDRAB 12035; linezolid 64 μg/ml (Conc./MIC 1/8)
  Peptide MIC during treatment with linezolid: 4 mg/L
MDRAB 12035; linezolid 512 μg/ml (Conc./MIC 1)
  Peptide MIC during treatment with linezolid: 0 mg/L
MDRAB 12035; linezolid […] (Conc./MIC 1/2)
  Peptide MIC during treatment with linezolid: 1 mg/L
MDRAB 12035; linezolid […] (Conc./MIC 1/4)
  Peptide MIC during treatment with linezolid: 2 mg/L
MDRAB 12035; [13]
  Peptide MIC during treatment with vancomycin: 2 mg/L
MDRAB 12035; [14]
  Peptide MIC during treatment with vancomycin: 0.25 mg/L
MDRAB 12035; vancomycin […] (Conc./MIC 1/4)
  Peptide MIC during treatment with vancomycin: 2 mg/L
MDRAB 12035; vancomycin […] (Conc./MIC 1/8)
  Peptide MIC during treatment with vancomycin: 4 mg/L
E. coli [2]; [15]
  Peptide MIC: 0 mg/L
E. coli [2]; with Linezolid […] (Conc./MIC 1)
  Peptide MIC: 0 mg/L
E. coli [2]; with Vancomycin 1024 μg/ml (Conc./MIC 1)
  Peptide MIC: 0 mg/L
MDREC 1229 [3]; [15]
  Peptide MIC: 0 mg/L
MDREC 1229 [3]; with Linezolid 512 μg/ml (Conc./MIC 1)
  Peptide MIC: 0 mg/L
P. aeruginosa
  Minimal inhibitory concentration MIC: 16 mg/L (≈ 6.62 µM)
MDRST 8009
  Minimal inhibitory concentration MIC: 64 mg/L (≈ 26.5 µM)
E. coli [4]; E. coli and MDREC1229
  Synergistic effect of antibacterial activity with existing antibiotics compared with PapMA-1: level similar to that of the PapMA-1 peptide
E. coli [4]; erythromycin combined with peptide at 1 μg/ml
  Antibiotic MIC, Erythromycin: 64 mg/L
E. coli [4]; erythromycin combined with peptide at 2 μg/ml
  Antibiotic MIC, Erythromycin: 32 mg/L
E. coli [4]; erythromycin combined with peptide at 4 μg/ml
  Antibiotic MIC, Erythromycin: 16 mg/L
E. coli [4]; erythromycin combined with peptide at 6 μg/ml
  Antibiotic MIC, Erythromycin: 4 mg/L
E. coli [4]; erythromycin combined with peptide at 8 μg/ml
  Antibiotic MIC, Erythromycin: 1 mg/L
E. coli [4]; erythromycin combined with peptide at 16 μg/ml
  Antibiotic MIC, Erythromycin: 0.125 mg/L
E. coli [4]; erythromycin combined with peptide at 32 μg/ml
  Antibiotic MIC, Erythromycin: 0 mg/L
E. coli [4]; erythromycin combined with peptide at 64 μg/ml
  Antibiotic MIC, Erythromycin: 0 mg/L
E. coli [4]; linezolid combined with peptide at 1 μg/ml
  Antibiotic MIC, Linezolid: 128 mg/L
E. coli [4]; linezolid combined with peptide at 2 μg/ml
  Antibiotic MIC, Linezolid: 64 mg/L
E. coli [4]; linezolid combined with peptide at 4 μg/ml
  Antibiotic MIC, Linezolid: 32 mg/L
E. coli [4]; linezolid combined with peptide at 6 μg/ml
  Antibiotic MIC, Linezolid: 32 mg/L
E. coli [4]; linezolid combined with peptide at 8 μg/ml
  Antibiotic MIC, Linezolid: 16 mg/L
E. coli [4]; linezolid combined with peptide at 16 μg/ml
  Antibiotic MIC, Linezolid: 2 mg/L
E. coli [4]; linezolid combined with peptide at 32 μg/ml
  Antibiotic MIC, Linezolid: 0 mg/L
E. coli [4]; linezolid combined with peptide at 64 μg/ml
  Antibiotic MIC, Linezolid: 0 mg/L
E. coli [4]; vancomycin combined with peptide at 1 μg/ml
  Antibiotic MIC, Vancomycin: >128 mg/L
E. coli [4]; vancomycin combined with peptide at 2 μg/ml
  Antibiotic MIC, Vancomycin: >128 mg/L
E. coli [4]; vancomycin combined with peptide at 4 μg/ml
  Antibiotic MIC, Vancomycin: >128 mg/L
E. coli [4]; vancomycin combined with peptide at 6 μg/ml
  Antibiotic MIC, Vancomycin: 128 mg/L
E. coli [4]; vancomycin combined with peptide at 8 μg/ml
  Antibiotic MIC, Vancomycin: 32 mg/L
E. coli [4]; vancomycin combined with peptide at 16 μg/ml
  Antibiotic MIC, Vancomycin: 8 mg/L
E. coli [4]; vancomycin combined with peptide at 32 μg/ml
  Antibiotic MIC, Vancomycin: 0 mg/L
E. coli [4]; vancomycin combined with peptide at 64 μg/ml
  Antibiotic MIC, Vancomycin: 0 mg/L
MDREC 1229 [5]; [16]
  Antibiotic MIC, Erythromycin: 128 mg/L
  Antibiotic MIC, Linezolid: >128 mg/L
  Antibiotic MIC, Vancomycin: >128 mg/L
MDREC 1229 [5]; [17]
  Antibiotic MIC, Erythromycin: 32 mg/L
  Antibiotic MIC, Linezolid: 64 mg/L
  Antibiotic MIC, Vancomycin: >128 mg/L
MDREC 1229 [5]; [18]
  Antibiotic MIC, Erythromycin: 32 mg/L
  Antibiotic MIC, Linezolid: 64 mg/L
  Antibiotic MIC, Vancomycin: >128 mg/L
MDREC 1229 [5]; [19]
  Antibiotic MIC, Erythromycin: 16 mg/L
  Antibiotic MIC, Linezolid: 32 mg/L
  Antibiotic MIC, Vancomycin: >128 mg/L
MDREC 1229 [5]; [20]
  Antibiotic MIC, Erythromycin: 4 mg/L
  Antibiotic MIC, Linezolid: 16 mg/L
  Antibiotic MIC, Vancomycin: 128 mg/L
MDREC 1229 [5]; [21]
  Antibiotic MIC, Erythromycin: 0.25 mg/L
  Antibiotic MIC, Linezolid: 4 mg/L
  Antibiotic MIC, Vancomycin: 16 mg/L
MDREC 1229 [5]; [22]
  Antibiotic MIC, Erythromycin: 0 mg/L
  Antibiotic MIC, Linezolid: 0 mg/L
  Antibiotic MIC, Vancomycin: 0 mg/L
MDREC 1229 [5]; [23]
  Antibiotic MIC, Erythromycin: 0 mg/L
  Antibiotic MIC, Linezolid: 0 mg/L
  Antibiotic MIC, Vancomycin: 0 mg/L
A. baumannii [6]; A. baumannii and MDRAB 12035
  Synergistic effect of antibacterial activity with existing antibiotics compared with PapMA-1: higher level than the PapMA-1 peptide
A. baumannii [6]; [24]
  Antibiotic MIC, Erythromycin: 32 mg/L
  Antibiotic MIC, Linezolid: >128 mg/L
  Antibiotic MIC, Vancomycin: >128 mg/L
A. baumannii [6]; [25]
  Antibiotic MIC, Erythromycin: 16 mg/L
  Antibiotic MIC, Linezolid: 64 mg/L
  Antibiotic MIC, Vancomycin: 128 mg/L
A. baumannii [6]; [26]
  Antibiotic MIC, Erythromycin: 8 mg/L
  Antibiotic MIC, Linezolid: 32 mg/L
  Antibiotic MIC, Vancomycin: 64 mg/L
A. baumannii [6]; [27]
  Antibiotic MIC, Erythromycin: 1 mg/L
  Antibiotic MIC, Linezolid: 16 mg/L
  Antibiotic MIC, Vancomycin: 32 mg/L
A. baumannii [6]; [28]
  Antibiotic MIC, Erythromycin: 0.125 mg/L
  Antibiotic MIC, Linezolid: 8 mg/L
  Antibiotic MIC, Vancomycin: 32 mg/L
A. baumannii [6]; [29]
  Antibiotic MIC, Erythromycin: 0 mg/L
  Antibiotic MIC, Linezolid: 0 mg/L
  Antibiotic MIC, Vancomycin: 0 mg/L
A. baumannii [6]; [30]
  Antibiotic MIC, Erythromycin: 0 mg/L
  Antibiotic MIC, Linezolid: 0 mg/L
  Antibiotic MIC, Vancomycin: 0 mg/L
A. baumannii [6]; [31]
  Antibiotic MIC, Erythromycin: 0 mg/L
  Antibiotic MIC, Linezolid: 0 mg/L
  Antibiotic MIC, Vancomycin: 0 mg/L
E. coli [7]
  Minimal inhibitory concentration MIC: 32 mg/L (≈ 13.2 µM)
MDREC 1229 [8]
  Minimal inhibitory concentration MIC: 32 mg/L (≈ 13.2 µM)
